In patent US10781215B2, “Heterobicyclic compounds useful as modulators of IL-12, IL-23 and/or IFNα responses” (BRISTOL-MYERS SQUIBB COMPANY, priority 2016, dated 2020):

Legend:
[1] = target: T1, human Tyk2 (amino acids 575-869, His-tagged) (Homo sapiens, UniProt P29597); assay: Probe displacement assay (SPA format); assay type: binding; settings: radiolabeled probe 40 nM, Tyk2 2.5 nM
T1 construct: made in house
Experimental: Probe Displacement Assay (SPA Format) The probe displacement assay is conducted as follows: In a […], test compounds along with recombinantly expressed His-tagged protein corresponding to amino acids 575-869 of human Tyk2 (sequence shown below) at 2.5 nM, 40 nM ((R)—N-(1-(3-(8-methyl-5-(methylamino)-8H-imidazo [4,5-d]thiazolo [5,4-b]pyridin-2-yl)phenyl)ethyl)-2-([^3H]methylsulfonyl)benzamide) (preparation described below) and 80 μg/mL Copper His-Tag scintillation proximity assay beads (Perkin Elmer, Catalog # RPNQ0095) in 50 mM HEPES, pH 7.5, containing 100 μg/mL bovine serum albumin and 5% DMSO were incubated for 30 minutes at room temperature. The amount of radiolabeled probe (preparation described below) bound to Tyk2 was then quantified by scintillation counting, and the inhibition by the test compound calculated by comparison to wells either with no inhibitor (0% inhibition) or without Tyk2 (100% inhibition). The EC50 value is defined as the concentration of test compound required to inhibit radiolabeled probe binding by 50%. Probe Displacement Assay (HTRF Format)

[2] = test system: IL-23 stimulated Kit225 T cells (STAT-dependent luciferase reporter); assay: Kit225 T cell assay, IL-23 stimulated STAT-dependent luciferase reporter; assay type: cell-based; settings: 20 ng/mL human recombinant IL-23, 5-6 hours
Experimental: (§1) Kit225 T cells with a stably-integrated STAT-dependent luciferase reporter were plated in RPMI (Gibco) containing 10% heat-inactivated FBS (Gibco) and 100 U/mL PenStrep (Gibco). The cells were then stimulated with either 20 ng/mL human recombinant IL-23 or 200 U/mL human recombinant IFNα (PBL InterferonSource) for 5-6 hours. Luciferase expression was measured using the STEADY-GLO® Luciferase Assay System (Promega) according to the manufacturer's instructions. Inhibition data were calculated by comparison to no inhibitor control wells for 0% inhibition and non-stimulated control wells for 100% inhibition. Dose response curves were generated to determine the concentration required to inhibit 50% of cellular response (IC50) as derived by non-linear regression analysis.

[3] = test system: IFNα stimulated Kit225 T cells (STAT-dependent luciferase reporter); assay: Kit225 T cell assay, IFNα stimulated STAT-dependent luciferase reporter; assay type: cell-based; settings: 200 U/mL human recombinant IFNα, 5-6 hours
Experimental: as §1

T1 sequence (P29597 with tags, fused parts or gaps): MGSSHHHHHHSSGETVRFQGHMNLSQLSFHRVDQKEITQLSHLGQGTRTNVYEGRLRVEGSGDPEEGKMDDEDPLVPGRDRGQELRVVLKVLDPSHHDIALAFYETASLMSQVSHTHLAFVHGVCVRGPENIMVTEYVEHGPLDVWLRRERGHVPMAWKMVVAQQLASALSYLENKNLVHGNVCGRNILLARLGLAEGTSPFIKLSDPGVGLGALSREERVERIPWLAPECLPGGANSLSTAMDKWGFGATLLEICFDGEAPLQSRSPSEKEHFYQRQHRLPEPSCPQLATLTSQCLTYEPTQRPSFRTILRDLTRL

EC50 [1] [nM]	IC50 [2] [nM]	IC50 [3] [nM]	Structure (SMILES)
270	1410	4260	Cc1nc2c(Nc3ccccc3S(C)(=O)=O)nc(Nc3ccc(F)cc3)nc2[nH]1 [Example 1, N2-(4-fluorophenyl)-8-methyl-N6-(2-(methylsulfonyl)phenyl)-9H-purine-2,6-diamine]
13	162	88	Cc1nc2c(Nc3ccccc3S(C)(=O)=O)cc(Nc3ccc(F)cn3)nc2[nH]1 [Example 2, N5-(5-fluoropyridin-2-yl)-2-methyl-N7-(2-(methylsulfonyl)phenyl)-3H-imidazo[4,5-b]pyridine-5,7-diamine]
12	275	190	Cc1nc2c(Nc3ccccc3S(C)(=O)=O)cc(Nc3cc(C#N)ccn3)nc2[nH]1 [Example 3, 2-({7-[(2-methanesulfonylphenyl)amino]-2-methyl-3H-imidazo[4,5-b]pyridin-5-yl}amino)pyridine-4-carbonitrile]
12	347	196	Cc1cc(Nc2cc(Nc3ccccc3S(C)(=O)=O)c3nc(C)[nH]c3n2)nc(C)n1 [Example 4, 5-N-(2,6-dimethylpyrimidin-4-yl)-7-N-(2-methanesulfonylphenyl)-2-methyl-3H-imidazo[4,5-b]pyridine-5,7-diamine]
11	190	161	Cc1nc2c(Nc3ccccc3S(C)(=O)=O)cc(Nc3ccc(N4CCOCC4)cn3)nc2[nH]1 [Example 5, 7-N-(2-methanesulfonylphenyl)-2-methyl-5-N-[5-(morpholin-4-yl)pyridin-2-yl]-3H-imidazo[4,5-b]pyridine-5,7-diamine]
37	447	371	COc1cnc(Nc2cc(Nc3ccccc3S(C)(=O)=O)c3nc(C)[nH]c3n2)cn1 [Example 6, 7-N-(2-methanesulfonylphenyl)-5-N-(5-methoxypyrazin-2-yl)-2-methyl-3H-imidazo[4,5-b]pyridine-5,7-diamine]
14	718	285	Cc1nc2c(Nc3ccccc3S(C)(=O)=O)cc(NC(=O)C3CC3)nc2[nH]1 [Example 7, N-{7-[(2-methanesulfonylphenyl)amino]-2-methyl-3H-imidazo[4,5-b]pyridin-5-yl}cyclopropanecarboxamide]
21	1950	1470	Cc1nc2c(Nc3ccccc3S(C)(=O)=O)cc(Nc3ccc(C(=O)N4CCOCC4)cn3)nc2[nH]1 [Example 8, 7-N-(2-methanesulfonylphenyl)-2-methyl-5-N-[5-(morpholine-4-carbonyl)pyridin-2-yl]-3H-imidazo[4,5-b]pyridine-5,7-diamine]
17	854	564	Cc1nc2c(Nc3ccccc3S(C)(=O)=O)cc(Nc3ccc(N4CCC(C)(O)CC4)cn3)nc2[nH]1 [Example 9, 1-[6-({7-[(2-methanesulfonylphenyl)amino]-2-methyl-3H-imidazo[4,5-b]pyridin-5-yl}amino)pyridin-3-yl]-4-methylpiperidin-4-ol]
13	143	190	Cc1nc2c(Nc3ccccc3S(C)(=O)=O)cc(Nc3ccc(C(F)(F)F)cn3)nc2[nH]1 [Example 10, 7-N-(2-methanesulfonylphenyl)-2-methyl-5-N-[5-(trifluoromethyl)pyridin-2-yl]-3H-imidazo[4,5-b]pyridine-5,7-diamine]
10	875	463	Cc1ccc(Nc2cc(Nc3ccccc3S(C)(=O)=O)c3nc(C)[nH]c3n2)nn1 [Example 11, 7-N-(2-methanesulfonylphenyl)-2-methyl-5-N-(6-methylpyridazin-3-yl)-3H-imidazo[4,5-b]pyridine-5,7-diamine]
30	357	818	Cc1nc2c(Nc3ccccc3S(C)(=O)=O)cc(Nc3cnc(C(F)(F)F)cn3)nc2[nH]1 [Example 12, 7-N-(2-methanesulfonylphenyl)-2-methyl-5-N-[5-(trifluoromethyl)pyrazin-2-yl]-3H-imidazo[4,5-b]pyridine-5,7-diamine]
9	185	190	Cc1nc2c(Nc3ccccc3S(C)(=O)=O)cc(Nc3ccc(C#N)cn3)nc2[nH]1 [Example 13, 6-({7-[(2-methanesulfonylphenyl)amino]-2-methyl-3H-imidazo[4,5-b]pyridin-5-yl}amino)pyridine-3-carbonitrile]
11	7860	6080	Cc1nc2c(Nc3ccccc3S(C)(=O)=O)cc(Nc3ccc(C(N)=O)cn3)nc2[nH]1 [Example 14, 6-({7-[(2-methanesulfonylphenyl)amino]-2-methyl-3H-imidazo[4,5-b]pyridin-5-yl}amino)pyridine-3-carboxamide]
31	183	207	Cc1cnc(Nc2cc(Nc3ccccc3S(C)(=O)=O)c3nc(C)[nH]c3n2)cn1 [Example 15, 7-N-(2-methanesulfonylphenyl)-2-methyl-5-N-(5-methylpyrazin-2-yl)-3H-imidazo[4,5-b]pyridine-5,7-diamine]
14	90	128	COc1ccc(Nc2cc(Nc3ccccc3S(C)(=O)=O)c3nc(C)[nH]c3n2)nc1 [Example 16, 7-N-(2-methanesulfonylphenyl)-5-N-(5-methoxypyridin-2-yl)-2-methyl-3H-imidazo[4,5-b]pyridine-5,7-diamine]
15	104	128	Cc1nc2c(Nc3ccccc3S(C)(=O)=O)cc(Nc3cc(F)ccn3)nc2[nH]1 [Example 17, 5-N-(4-fluoropyridin-2-yl)-7-N-(2-methanesulfonylphenyl)-2-methyl-3H-imidazo[4,5-b]pyridine-5,7-diamine]
240	2400	3620	COc1ccnc(Nc2cc(Nc3ccccc3S(C)(=O)=O)c3nc(C)[nH]c3n2)c1 [Example 18, 7-N-(2-methanesulfonylphenyl)-5-N-(4-methoxypyridin-2-yl)-2-methyl-3H-imidazo[4,5-b]pyridine-5,7-diamine]
19	480	732	COc1ccc(Nc2cc(Nc3ccccc3S(C)(=O)=O)c3nc(C)[nH]c3n2)nn1 [Example 19, 7-N-(2-methanesulfonylphenyl)-5-N-(6-methoxypyridazin-3-yl)-2-methyl-3H-imidazo[4,5-b]pyridine-5,7-diamine]
53	407	401	Cc1ccnc(Nc2cc(Nc3ccccc3S(C)(=O)=O)c3nc(C)[nH]c3n2)c1 [Example 20, 7-N-(2-methanesulfonylphenyl)-2-methyl-5-N-(4-methylpyridin-2-yl)-3H-imidazo[4,5-b]pyridine-5,7-diamine]
27	261	201	Cc1ccc(Nc2cc(Nc3ccccc3S(C)(=O)=O)c3nc(C)[nH]c3n2)nc1 [Example 21, 7-N-(2-methanesulfonylphenyl)-2-methyl-5-N-(5-methylpyridin-2-yl)-3H-imidazo[4,5-b]pyridine-5,7-diamine]
	370	264	Cc1nc2c(Nc3ccccc3S(C)(=O)=O)cc(Nc3ccn(C)n3)nc2[nH]1 [Example 22, 7-N-(2-methanesulfonylphenyl)-2-methyl-5-N-(1-methyl-1H-pyrazol-3-yl)-3H-imidazo[4,5-b]pyridine-5,7-diamine]
5	81	44	Cc1nc2c(Nc3ccccc3S(C)(=O)=O)cc(Nc3cccc(C(F)(F)F)n3)nc2[nH]1 [Example 23, 7-N-(2-methanesulfonylphenyl)-2-methyl-5-N-[6-(trifluoromethyl)pyridin-2-yl]-3H-imidazo[4,5-b]pyridine-5,7-diamine]
	1960	1220	Cc1cc(Nc2cc(Nc3ccccc3C(N)=O)c3nc(C)[nH]c3n2)nc(C)n1 [Example 33, 2-({5-[(2,6-dimethylpyrimidin-4-yl)amino]-2-methyl-3H-imidazo[4,5-b]pyridin-7-yl}amino)benzamide]
	4380	5120	Cc1nc2c(Nc3ccccc3C(N)=O)cc(Nc3ccc(N4CCOCC4)cn3)nc2[nH]1 [Example 34, 2-[(2-methyl-5-{[5-(morpholin-4-yl)pyridin-2-yl]amino}-3H-imidazo[4,5-b]pyridin-7-yl)amino]benzamide]
